“Also recorded” adds a separate entry of the source.
System: adjuvant-induced disease (AID)
Assay: Adjuvant-induced disease (AID)
Type: in vivo, Fisher 344 rats
Conditions: AID rats
Procedure: Adjuvant-induced disease (AID) is a good experimental model for rheumatoid arthritis, and is often used in testing agents for anti-inflammatory activity. The compound was administered intraperitoneally on the 1st day, i.e., the day of the administration of Freund’s adjuvant (FA), and once every other day for the following 24 days. Adjuvant arthritis was developed about 14 days post-FA administration. […] The effect of the tested compound on inflammation is shown in Table 7 and the time course of adjuvant arthritis development expressed as arthritic score is shown in Figure 2. In the same experimental model, Indomethacin (IMA) was used as a reference compound.
The animals (Fisher 344 rats), were housed under standard conditions, and received a diet of commercial food pellets and water ad libitum during the maintenance, but were entirely fasted during the experiment period. Both sexes were used, while pregnant females were excluded. Each group was composed of 6–15 animals. Our studies were in accordance with recognized guidelines on animal experimentation (guidelines for the care and use of laboratory animals published by the Greek Government 160/1991, based on EU regulations 86/609). Rats were kept in the Centre of the School of Veterinary Medicine (EL54 BIO42), Aristotle University of Thessaloniki, which is registered by the official state veterinary authorities (presidential degree 56/2013, in harmony with the European Directive 2010/63/EEC). The experimental protocols were approved by the Animal Ethics Committee of the Prefecture of Central Macedonia.
Rats were divided into four groups (five-membered groups of animals were used): groups one, two and three were injected intradermally with 0.1 mL Freund’s adjuvant (FA) into the base of the tails of the animals; group three was the FA control rats; group four was injected with saline, used as an absolute control. Compound 2d (group 1) and indomethacin (group 2) were injected i.p. once every other day for the following 24 days in a dose of 0.00057 mmol/mL/kg body weight (Table 7). Adjuvant arthritis was developed circa 14 days post-FA administration. Arthritic score was measured every 2 days from the commencement (14th day) day. Arthritic score was assessed on the 24th day. For quantification of arthritis (arthritic score); a single point was assigned for each wrist or ankle area and an additional point was given for each involved phalangeal joint, up to a maximum of five points per extremity.
On the 24th day and at least 12 h after the last injection, animals were administered zoxazolamine i.p. […], as an aqueous suspension with a few drops of Tween 80, and the duration of the paralysis were assessed (Table 7) (Figure 2). The experiment was conducted in duplicate.

[1] = 0.00057 mmol/mL/kg i.p. every other day for 24 days

## Brc1ccc(COc2ccc(C3CC(c4ccccc4)=NN3)cc2)cc1 (stereo not shown) [Compound 2d, 5-(4-((4-bromobenzyl)oxy)phenyl)-3-phenyl-4,5-dihydro-1H-pyrazole]
[1]
  Percent change in body weight (g ± SD): 6 ± 0.3 g
  Percent change in liver weight (g ± SD): 7 ± 0.6 g
24th day, zoxazolamine i.p.
  Zoxazolamine paralysis (minutes ± SD): 227 ± 17 min
i.p. once every other day for 24 days, versus AID rat controls
  arthritis development / arthritic score: either did not develop or developed very mild arthritis; also recorded: significantly reduced

From article PMC8201324, “Pyrazoles and Pyrazolines as Anti-Inflammatory Agents” (Molecules, 2021)
